# Reference: patent publication US20190119282A1, “IMIDAZOPYRIDAZINES USEFUL AS INHIBITORS OF THE PAR-2 SIGNALING PATHWAY” (Vertex Pharmaceuticals Incorporated, priority 2013, published 2019)
# What was measured:
# [1] = target: T1, PAR2 (HT-29 cells, trypsin activation) (Homo sapiens, UniProt P55085); test: Ca FLIPR TETRA assay, ANTAGONIST mode, stimulation with 3.1 U/mL trypsin; type: cell-based; conditions: HT-29 cells
# T1 construct: host or cells: HT-29 cells
# T1 sequence (P55085 26-397): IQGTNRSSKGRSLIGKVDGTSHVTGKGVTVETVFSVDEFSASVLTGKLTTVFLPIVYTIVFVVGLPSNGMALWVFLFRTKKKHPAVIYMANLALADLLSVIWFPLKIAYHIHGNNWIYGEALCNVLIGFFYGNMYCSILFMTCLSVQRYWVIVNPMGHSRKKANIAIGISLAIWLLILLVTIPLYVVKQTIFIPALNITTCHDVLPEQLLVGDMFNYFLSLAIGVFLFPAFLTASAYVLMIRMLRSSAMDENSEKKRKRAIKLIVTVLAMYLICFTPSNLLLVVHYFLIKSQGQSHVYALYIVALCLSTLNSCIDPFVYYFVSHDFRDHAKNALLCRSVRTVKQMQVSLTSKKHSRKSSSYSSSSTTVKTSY
# Outline: (§1)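 HT-29 cells grown overnight in 1% FBS McCoy's medium were loaded with calcium 5 dye (45 min 37 °C, 15 min r.t.). Compounds were added and Ca2+ read for direct activation, then after 30 min at r.t. cells were stimulated with 8 μM SLIGKV, 1 U/mL thrombin, 3.1 U/mL trypsin or 0.6 μM UTP (final).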
# [2] = system: UTP-stimulated Ca2+ response in HT-29 cells; test: Ca FLIPR TETRA assay, ANTAGONIST mode, stimulation with 0.6 μM UTP; type: cell-based, human; conditions: Homo sapiens, HT-29 cells
# Outline: as §1
# [3] = system: Thrombin-stimulated Ca2+ response in HT-29 cells; test: Ca FLIPR TETRA assay, ANTAGONIST mode, stimulation with 1 U/mL Thrombin; type: cell-based, human; conditions: Homo sapiens, HT-29 cells
# Outline: as §1
# [4] = target: T2, PAR2 (HT-29 cells, SLIGKV activation) (Homo sapiens, UniProt P55085); test: Ca FLIPR TETRA assay, ANTAGONIST mode, stimulation with 8 μM SLIGKV; type: cell-based; conditions: HT-29 cells
# T2 construct: host or cells: HT-29 cells
# T2 sequence (P55085 26-397): T1 sequence (P55085 26-397)
# Outline: as §1
# [5] = antagonist mode, stimulation with 3.1 U/mL trypsin
# [6] = antagonist mode, stimulation with 0.6 μM UTP
# [7] = antagonist mode, stimulation with 1 U/mL Thrombin
# [8] = antagonist mode, stimulation with 8 μM SLIGKV
# [9] = stimulation with 3.1 U/mL trypsin
# [10] = stimulation with 1 U/mL Thrombin
SMILES,"IC50 [1, 5] [nM]","IC50 [2, 6] [nM]","IC50 [3, 7] [nM]","IC50 [4, 8] [nM]",other results
CC(C)(C)c1cc(-c2ccc(F)cc2)nn2cc(C(=O)N3CCN(C(=O)c4ccno4)CC3(C)C)nc12 [Compound I-202],0.9,> 1000,> 1000,0.6,–
"C[C@H](O)C(=O)N1CCN(C(=O)c2cn3nc(-c4ccc(F)cc4)cc(C4(C)CC4)c3n2)C(C)(C)C1 [Compound I-34, (2S)-1-[4-[6-(4-fluorophenyl)-8-(1-methylcyclopropyl)imidazo[1,2-b]pyridazine-2-carbonyl]-3,3-dimethyl-piperazin-1-yl]-2-hydroxy-propan-1-one]",–,–,–,–,"IC50 [1, 9]: 59 nM; IC50 ([2]; stimulation with 0.6 μM UTP): 21000 nM; IC50 [3, 10]: 21000 nM; IC50 ([4]; stimulation with 8 μM SLIGKV): 54 nM"
Cc1nc(C(=O)N2CCN(C(=O)c3cn4nc(-c5ccc(F)c(C)c5)cc(C(C)C)c4n3)C(C)(C)C2)c[nH]1 [Compound I-380],7.4,> 1000,> 1000,8.3,–
Cc1cc(C(=O)N2CCN(C(=O)c3cn4nc(-c5ccc(F)c(C)c5)cc(C(C)(C)C)c4n3)C(C)(C)C2)[nH]n1 [Compound I-382],0.7,> 1000,> 1000,0.6,–
CC(C)(C)c1cc(-c2ccc(F)cc2)nn2cc(C(=O)N3CCN(C4COC4)C(=O)C3(C)C)nc12 [Compound I-210],3.5,> 1000,> 1000,4,–
"C[C@H](O)C(=O)N1CCN(C(=O)c2cn3nc(-c4ccc(F)cc4)cc(C(F)(F)F)c3n2)C(C)(C)C1 [Compound I-39, (2S)-1-[4-[6-(4-Fluorophenyl)-8-(trifluoromethyl)imidazo[1,2-b]pyridazine-2-carbonyl]-3,3-dimethyl-piperazin-1-yl]-2-hydroxy-propan-1-one]",–,–,–,–,"IC50 [1, 9]: 860 nM; IC50 ([2]; stimulation with 0.6 μM UTP): > 50000 nM; IC50 [3, 10]: > 50000 nM; IC50 ([4]; stimulation with 8 μM SLIGKV): 830 nM"
CC(C)(CC(=O)O)C(=O)N1CCN(C(=O)c2cn3nc(-c4ccc(F)cc4)cc(C(C)(C)C)c3n2)C(C)(C)C1 [Compound I-571],–,–,–,–,"IC50 ([1]; antagonist mode, 3.1 U/mL trypsin): 3.3 nM; IC50 ([2]; antagonist mode, 0.6 μM UTP): > 1000 nM; IC50 ([3]; antagonist mode, 1 U/mL Thrombin): 980 nM; IC50 ([4]; antagonist mode, 8 μM SLIGKV): 1.1 nM"
CC(C)(C)c1cc(-c2ccc(C(F)(F)F)cc2)nn2cc(C(=O)N3CCN(C(=O)c4ccn[nH]4)CC3(C)C)nc12 [Compound I-401],1.5,> 1000,> 1000,2.1,–
CC1(C)CN(C(=O)c2nc[nH]n2)CCN1C(=O)c1cn2nc(-c3ccc(F)cc3)cc(C(F)(F)F)c2n1 [Compound I-269],120,> 1000,> 1000,90.5,–
Cc1cccc(-c2cc(C(C)(C)C)c3nc(C(=O)N4CCN(C(=O)C5CC(C)(O)C5)CC4(C)C)cn3n2)c1 (stereo not drawn) [Compound I-409],1.7,> 1000,830,1.7,–
Cc1ccc(-c2cc(C(C)C)c3nc(C(=O)N4CCN(C(=O)c5ccncn5)CC4(C)C)cn3n2)cc1 [Compound I-256],12.3,> 1000,> 1000,6.1,–
"C[C@H]1CN(C(=O)c2cn3nc(-c4ccc(F)cc4)cc(C(F)(F)F)c3n2)CCN1C(=O)OCc1cccnc1 [Compound I-12, 3-Pyridylmethyl (2S)-4-[6-(4-fluorophenyl)-8-(trifluoromethyl)-imidazo-[1,2-b]pyridazine-2-carbonyl]-2-methyl-piperazine-1-carboxylate]",–,–,–,–,"IC50 [1, 9]: 490 nM; IC50 ([2]; stimulation with 0.6 μM UTP): 9200 nM; IC50 [3, 10]: 7700 nM; IC50 ([4]; stimulation with 8 μM SLIGKV): 84 nM"
CC1(C(=O)O)CCC(C(=O)N2CCN(C(=O)c3cn4nc(-c5ccc(Cl)cc5)cc(C(C)(C)C)c4n3)C(C)(C)C2)CC1 (stereo not drawn) [Compound I-534],0.1,> 1000,> 1000,0.08,–
CC(C)c1cc(-c2ccc(F)cc2)nn2cc(C(=O)N3CCN(C(=O)c4cccnc4)CC3(C)C)nc12 [Compound I-309],19,> 1000,> 1000,17.5,–
Cc1cc(C2=Nn3cc(C(=O)N4CCNC(=O)C4(C)C)nc3C(C(C)C)C2)ccc1F (stereo not drawn) [Compound I-447],180,> 1000,> 1000,170,–
